Like-named read-outs stand apart in the source and are kept apart here.
How the values were obtained:
MDMX = target: T1, MDMX (Homo sapiens, UniProt O15151); test: Competitive fluorescence polarization assay for MDMX; format: binding; settings: competitive FP assay
T1 sequence (O15151 1-125): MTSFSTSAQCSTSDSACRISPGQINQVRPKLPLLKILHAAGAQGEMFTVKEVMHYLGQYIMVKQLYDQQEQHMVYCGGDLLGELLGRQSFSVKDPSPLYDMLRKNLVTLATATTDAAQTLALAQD

MDM2 = MDM2 (Homo sapiens, UniProt Q00987); test: Competitive fluorescence polarization assay for MDM2; format: binding; settings: competitive FP assay, MDM2
MDM2, sequence (Q00987 1-125): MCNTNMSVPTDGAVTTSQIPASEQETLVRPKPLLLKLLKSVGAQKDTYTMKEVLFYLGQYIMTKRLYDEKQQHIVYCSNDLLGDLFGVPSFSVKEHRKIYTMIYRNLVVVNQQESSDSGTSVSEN

Structure (SMILES) | IC50 (MDMX; read-out: IC50 (MDMX)) [nM] | Ki (MDMX; read-out: Ki (MDMX)) [nM] | IC50 (MDM2; read-out: IC50 (MDM2)) [nM] | Ki (MDM2; read-out: Ki (MDM2)) [nM] | IC50 (MDMX; IC50 (MDMX)) [nM] | Ki (MDMX; Ki (MDMX)) [nM] | IC50 (MDM2; IC50 (MDM2)) [nM] | Ki (MDM2; Ki (MDM2)) [nM]
CCCC[C@H](NC(=O)[C@H](C)NC(=O)[C@H](C)NC(=O)[C@]1(C)CCCC=CCCCCCC[C@@](C)(NC(=O)[C@H](Cc2ccccc2)NC(=O)[C@@H](NC(=O)[C@H](CC(C)C)NC(C)=O)[C@@H](C)O)C(=O)N[C@@H](C)C(=O)N[C@@H](Cc2ccc(O)cc2)C(=O)N[C@@H](Cc2c[nH]c3ccccc23)C(=O)N[C@@H](C)C(=O)N[C@@H](CCC(N)=O)C(=O)N[C@@H](CC(C)C)C(=O)N1)C(=O)N[C@@H](C)C(=O)N[C@H](C)C(N)=O (single isomer, unassigned) [compound 408] | 10 to 100 | 10 to 100 | 10 to 100 | < 10 | – | – | – | –
CCCC[C@H](NC(=O)[C@H](C)NC(=O)[C@H](C)NC(=O)[C@]1(C)CCCC=CCCCCCC[C@@](C)(NC(=O)[C@H](Cc2ccccc2)NC(=O)[C@@H](NC(=O)[C@H](CC(C)C)NC(C)=O)[C@@H](C)O)C(=O)N[C@@H](C)C(=O)N[C@@H](Cc2ccc(O)cc2)C(=O)N[C@@H](Cc2c[nH]c3ccccc23)C(=O)N[C@@H](C)C(=O)N[C@@H](CCC(N)=O)C(=O)N[C@@H](CC(C)C)C(=O)N1)C(=O)N[C@@H](C)C(=O)N(C)CC(N)=O (single isomer, unassigned) [compound 410] | < 10 | < 10 | < 10 | < 10 | – | – | – | –
CCCC[C@H](NC(=O)[C@H](C)NC(=O)[C@H](C)NC(=O)[C@]1(C)CCCC=CCCCCCC[C@@](C)(NC(=O)[C@H](Cc2ccccc2)NC(=O)[C@@H](NC(=O)[C@H](CC(C)C)NC(C)=O)[C@@H](C)O)C(=O)N[C@@H](C)C(=O)N[C@@H](Cc2ccc(O)cc2)C(=O)N[C@@H](Cc2c[nH]c3ccccc23)C(=O)N[C@@H](C)C(=O)N[C@@H](CCC(N)=O)C(=O)N[C@@H](CC(C)C)C(=O)N1)C(=O)N[C@@H](C)C(=O)O (single isomer, unassigned) [compound 421] | < 10 | < 10 | < 10 | < 10 | – | – | – | –
CCCC[C@H](NC(=O)[C@H](C)NC(=O)[C@H](C)NC(=O)[C@]1(C)CCCC=CCCCCCC[C@@](C)(NC(=O)[C@H](Cc2ccccc2)NC(=O)[C@@H](NC(=O)[C@H](CC(C)C)NC(C)=O)[C@@H](C)O)C(=O)N[C@@H](C)C(=O)N[C@@H](Cc2ccc(O)cc2)C(=O)N[C@@H](Cc2c[nH]c3ccccc23)C(=O)N[C@@H](C)C(=O)N[C@@H](CCC(N)=O)C(=O)N[C@@H](CC(C)C)C(=O)N1)C(=O)N[C@@H](C)C(=O)NCCC (single isomer, unassigned) [compound 423] | 10 to 100 | 10 to 100 | 10 to 100 | < 10 | – | – | – | –
CCCC[C@H](NC(=O)[C@H](C)NC(=O)[C@H](C)NC(=O)[C@]1(C)CCCC=CCCCCCC[C@@](C)(NC(=O)[C@H](Cc2ccccc2)NC(=O)[C@@H](NC(=O)[C@H](CC(C)C)NC(C)=O)[C@@H](C)O)C(=O)N[C@@H](C)C(=O)N[C@@H](Cc2ccc(O)cc2)C(=O)N[C@@H](Cc2c[nH]c3ccccc23)C(=O)N[C@@H](C)C(=O)N[C@@H](CCC(N)=O)C(=O)N[C@@H](CC(C)C)C(=O)N1)C(=O)N[C@@H](C)C(=O)NCCC(C)(C)C (single isomer, unassigned) [compound 425] | 10 to 100 | 10 to 100 | 10 to 100 | 10 to 100 | – | – | – | –
CCCCCCNC(=O)[C@H](C)NC(=O)[C@H](CCCC)NC(=O)[C@H](C)NC(=O)[C@H](C)NC(=O)[C@]1(C)CCCC=CCCCCCC[C@@](C)(NC(=O)[C@H](Cc2ccccc2)NC(=O)[C@@H](NC(=O)[C@H](CC(C)C)NC(C)=O)[C@@H](C)O)C(=O)N[C@@H](C)C(=O)N[C@@H](Cc2ccc(O)cc2)C(=O)N[C@@H](Cc2c[nH]c3ccccc23)C(=O)N[C@@H](C)C(=O)N[C@@H](CCC(N)=O)C(=O)N[C@@H](CC(C)C)C(=O)N1 (single isomer, unassigned) [compound 427] | 100 to 1000 | 10 to 100 | 100 to 1000 | 10 to 100 | – | – | – | –
CC(C)C[C@H](NC(=O)CN(C)C)C(=O)N[C@H](C(=O)N[C@@H](Cc1ccccc1)C(=O)N[C@]1(C)CCCCCCC=CCCC[C@@](C)(C(=O)N[C@@H](C)C(=O)N[C@@H](C)C(=O)N[C@@H](C)C(=O)N[C@@H](C)C(=O)N[C@@H](C)C(=O)N[C@H](C)C(N)=O)NC(=O)[C@H](CC(C)C)NC(=O)[C@H](CCC(N)=O)NC(=O)[C@H](C)NC(=O)[C@H](Cc2c[nH]c3ccccc23)NC(=O)[C@H](Cc2ccc(O)cc2)NC(=O)[C@H](CCC(=O)O)NC1=O)[C@@H](C)O (single isomer, unassigned) [compound 439] | – | – | – | – | 10 to 100 | < 10 | < 10 | < 10
CC[C@H](C)[C@H](NC(=O)[C@H](C)NC(=O)[C@H](C)NC(=O)[C@]1(C)CCCC=CCCCCCC[C@@](C)(NC(=O)[C@H](Cc2ccccc2)NC(=O)[C@@H](NC(=O)[C@H](CC(C)C)NC(=O)CN(C)C)[C@@H](C)O)C(=O)N[C@@H](CCC(=O)O)C(=O)N[C@@H](Cc2ccc(C(=O)O)cc2)C(=O)N[C@@H](Cc2c[nH]c3ccccc23)C(=O)N[C@@H](C)C(=O)N[C@@H](CCC(N)=O)C(=O)N[C@@H](CC2CCC2)C(=O)N1)C(=O)N[C@H](C)C(N)=O (single isomer, unassigned) [compound 441] | < 10 | < 10 | < 10 | < 10 | – | – | – | –
CCCC[C@H](NC(=O)[C@H](C)NC(=O)[C@H](C)NC(=O)[C@]1(C)CCCC=CCCCCCC[C@@](C)(NC(=O)[C@H](Cc2ccccc2)NC(=O)[C@@H](NC(=O)[C@H](CC(C)C)NC(=O)CN(C)C)[C@@H](C)O)C(=O)N[C@@H](C)C(=O)N[C@@H](Cc2ccc(O)cc2)C(=O)N[C@@H](Cc2c[nH]c3ccccc23)C(=O)N[C@@H](C)C(=O)N[C@@H](CCC(N)=O)C(=O)N[C@@H](CC(C)C)C(=O)N1)C(=O)N[C@@H](C)C(N)=O (single isomer, unassigned) [compound 443] | 10 to 100 | 10 to 100 | 10 to 100 | < 10 | – | – | – | –
CC(=O)N[C@@H](CC(C)C)C(=O)N[C@H](C(=O)N[C@@H](Cc1ccccc1)C(=O)N[C@]1(C)CCCCCCC=CCCC[C@@](C)(C(=O)N[C@@H](C)C(=O)N[C@@H](C)C(=O)N[C@@H](C)C(=O)N[C@@H](C)C(=O)N[C@@H](C)C(=O)N[C@H](C)C(=O)O)NC(=O)[C@H](CC(C)C)NC(=O)[C@H](CCC(N)=O)NC(=O)[C@H](C)NC(=O)[C@H](Cc2c[nH]c3ccccc23)NC(=O)[C@H](Cc2ccc(O)cc2)NC(=O)[C@H](CCC(=O)O)NC1=O)[C@@H](C)O (single isomer, unassigned) [compound 551] | – | – | – | – | – | 10 to 100 | – | < 10
CC(=O)N[C@@H](CC(C)C)C(=O)N[C@H](C(=O)N[C@@H](Cc1ccccc1)C(=O)N[C@]1(C)CCCCCCC=CCCC[C@@](C)(C(=O)N[C@@H](C)C(=O)N[C@@H](C)C(=O)N[C@@H](C)C(=O)N[C@@H](C)C(=O)N[C@@H](C)C(=O)N[C@H](C)C(N)=O)NC(=O)[C@H](CC(C)C)NC(=O)[C@H](C)NC(=O)[C@H](C)NC(=O)[C@H](Cc2c[nH]c3ccccc23)NC(=O)[C@H](Cc2ccc(O)cc2)NC(=O)[C@H](C)NC1=O)[C@@H](C)O (single isomer, unassigned) [compound 708] | – | 10 to 100 | – | 10 to 100 | – | – | – | –
CC(=O)N[C@@H](CC(C)C)C(=O)N[C@H](C(=O)N[C@@H](Cc1ccccc1)C(=O)N[C@]1(C)CCCCCCC=CCCC[C@@](C)(C(=O)N[C@@H](CO)C(N)=O)NC(=O)[C@H](CC(C)C)NC(=O)[C@H](CCC(N)=O)NC(=O)[C@H](C)NC(=O)[C@H](Cc2c[nH]c3ccccc23)NC(=O)[C@H](C)NC(=O)[C@H](Cc2c[nH]cn2)NC1=O)[C@@H](C)O (single isomer, unassigned) [compound 710] | – | 10 to 100 | – | 10 to 100 | – | – | – | –
CC(=O)N[C@@H](CC(C)C)C(=O)N[C@H](C(=O)N[C@@H](Cc1ccccc1)C(=O)N[C@]1(C)CCCCCCC=CCCC[C@@](C)(C(=O)N[C@@H](CO)C(=O)N[C@@H](C)C(N)=O)NC(=O)[C@H](CC2CCC2)NC(=O)[C@H](CCC(N)=O)NC(=O)[C@H](C)NC(=O)[C@H](Cc2c[nH]c3ccccc23)NC(=O)[C@H](Cc2ccc(O)cc2)NC(=O)[C@H](CCC(=O)O)NC1=O)[C@@H](C)O (single isomer, unassigned) [compound 711] | – | 100 to 1000 | – | 10 to 100 | – | – | – | –
CC(=O)N[C@@H](CC(C)C)C(=O)N[C@H](C(=O)N[C@@H](Cc1ccccc1)C(=O)N[C@]1(C)CCCCCCC=CCCC[C@@](C)(C(=O)N[C@@H](CO)C(=O)N[C@@H](C)C(=O)N[C@@H](C)C(N)=O)NC(=O)[C@H](CC2CCC2)NC(=O)[C@H](CCC(N)=O)NC(=O)[C@H](C)NC(=O)[C@H](Cc2c[nH]c3ccccc23)NC(=O)[C@H](Cc2ccc(O)cc2)NC(=O)[C@H](Cc2c[nH]cn2)NC1=O)[C@@H](C)O (single isomer, unassigned) [compound 712] | – | < 10 | – | < 10 | – | – | – | –
CC(=O)N[C@@H](CC(C)C)C(=O)N[C@H](C(=O)N[C@@H](Cc1ccccc1)C(=O)N[C@]1(C)CCCCCCC=CCCC[C@@](C)(C(=O)N[C@@H](CO)C(=O)N[C@@H](C)C(=O)N[C@@H](C)C(N)=O)NC(=O)[C@H](CC2CCC2)NC(=O)[C@H](CCC(N)=O)NC(=O)[C@H](C)NC(=O)[C@H](Cc2c[nH]c3ccccc23)NC(=O)[C@H](Cc2ccc(O)cc2)NC(=O)[C@H](CO)NC1=O)[C@@H](C)O (single isomer, unassigned) [compound 713] | – | < 10 | – | < 10 | – | – | – | –
CC(=O)N[C@@H](CC(C)C)C(=O)N[C@H](C(=O)N[C@@H](Cc1ccccc1)C(=O)N[C@]1(C)CCCCCCC=CCCC[C@@](C)(C(=O)N[C@@H](C)C(=O)N[C@@H](C)C(=O)N[C@@H](C)C(N)=O)NC(=O)[C@H](CC2CCC2)NC(=O)[C@H](CCC(N)=O)NC(=O)[C@H](C)NC(=O)[C@H](Cc2c[nH]c3ccccc23)NC(=O)[C@H](Cc2ccc(O)cc2)NC(=O)[C@H](CCC(=O)O)NC1=O)[C@@H](C)O (single isomer, unassigned) [compound 716] | – | < 10 | – | < 10 | – | – | – | –

Source: patent US8927500B2, “Peptidomimetic macrocycles” (Aileron Therapeutics, Inc., priority 2012, dated 2015)
